According to patent publication US8236987B2, “Selective estrogen receptor modulator compositions and methods for treatment of disease” (The Regents of the University of California, priority 2007, dated 2012):
Entries after “also recorded” stand apart in the source; their conditions may differ. Read-outs that look alike come from different tables or passages of the source.

How the values were obtained:
[1] = molecular target: T1, full length (ER)β (Homo sapiens, UniProt Q92731); test: Estrogen receptor binding assay (spin column, [3H]estradiol competition), (ER)β
T1 construct: to full length (ER)α or (ER)β*; purchased PanVera Corp, Madison, Wis., USA

[2] = test system: GABAB receptor-mediated outward current in hypothalamic arcuate (dopamine, POMC) neurons; membrane associated estrogen receptor; test: Whole-cell patch voltage clamp: baclofen-induced GABAB response (GIRK outward current) in hypothalamic arcuate neurons; type: cell-based, guinea pig
[3] = molecular target: T2, full length (ER)α (Homo sapiens, UniProt P03372); test: Estrogen receptor binding assay (spin column, [3H]estradiol competition), (ER)α
T2 construct: purchased PanVera Corp, Madison, Wis., USA
T2 sequence (P03372 1-595): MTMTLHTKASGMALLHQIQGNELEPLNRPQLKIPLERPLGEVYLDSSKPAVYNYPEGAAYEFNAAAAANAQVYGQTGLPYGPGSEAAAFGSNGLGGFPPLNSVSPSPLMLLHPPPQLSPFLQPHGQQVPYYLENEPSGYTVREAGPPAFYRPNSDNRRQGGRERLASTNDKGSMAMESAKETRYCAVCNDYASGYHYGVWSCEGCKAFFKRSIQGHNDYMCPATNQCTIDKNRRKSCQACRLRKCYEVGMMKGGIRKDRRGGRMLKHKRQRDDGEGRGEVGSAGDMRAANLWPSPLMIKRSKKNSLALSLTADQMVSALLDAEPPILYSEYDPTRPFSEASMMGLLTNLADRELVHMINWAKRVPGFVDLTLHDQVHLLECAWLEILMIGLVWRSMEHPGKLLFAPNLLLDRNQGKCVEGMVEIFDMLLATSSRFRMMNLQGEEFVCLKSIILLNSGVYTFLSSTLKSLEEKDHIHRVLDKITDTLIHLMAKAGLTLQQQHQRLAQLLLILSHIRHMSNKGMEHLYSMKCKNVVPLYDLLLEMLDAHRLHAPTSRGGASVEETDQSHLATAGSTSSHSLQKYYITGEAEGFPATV

[4] = test system: uteri of ovariectomized C57BL/6 mice; test: Uterine size and weight in ovariectomized mice (uterotropic action); type: in vivo; details: 1 μg daily for 2 days, compared with oil vehicle
Description: Wild-type C57BL/6 mice in these studies were obtained from Jackson laboratories. All animals were maintained under controlled temperature (25° C.) and photoperiod conditions (14-h light, 10-h dark; lights on between 0700 and 2100) with food and water ad libitum. Adult mice were ovariectomized under isoflurane anesthesia, and allowed to recover for 1 week. […] The uteri were collected, weighed and fixed in 4% paraformaldehyde for later histological analysis (data not shown).

[5] = 10 μM (PD98059 in the pipette), together with 17β-estradiol

T1 sequence (Q92731 whole entry): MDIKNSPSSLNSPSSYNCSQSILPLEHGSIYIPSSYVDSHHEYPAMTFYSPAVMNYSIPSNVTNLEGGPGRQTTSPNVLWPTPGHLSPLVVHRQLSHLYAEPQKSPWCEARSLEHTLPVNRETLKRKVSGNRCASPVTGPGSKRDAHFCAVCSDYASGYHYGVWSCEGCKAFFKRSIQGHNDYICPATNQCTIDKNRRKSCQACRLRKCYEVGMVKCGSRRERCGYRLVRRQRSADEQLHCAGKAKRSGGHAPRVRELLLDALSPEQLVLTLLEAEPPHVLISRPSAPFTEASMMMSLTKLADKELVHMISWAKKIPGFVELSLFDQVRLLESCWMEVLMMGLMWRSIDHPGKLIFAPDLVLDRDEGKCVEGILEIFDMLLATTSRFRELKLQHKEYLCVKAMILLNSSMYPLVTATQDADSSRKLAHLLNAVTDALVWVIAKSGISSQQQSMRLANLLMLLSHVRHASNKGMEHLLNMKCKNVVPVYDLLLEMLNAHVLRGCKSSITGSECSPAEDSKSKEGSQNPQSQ

With 4-hydroxytamoxifen the “Relative binding affinity (ER)β” value [1] was 43%, the “block of the baclofen response” value [2] was 25% and the “effect on the baclofen response (in words)” value [2] was “behave like 17β-estradiol”. For the same compound, the “Relative binding affinity (ER)α” value [3] was 36%.
In the case of “17β-estradiol 17-hemisuccinate: BSA [17β-estradiol-BSA]”, the “effect on the baclofen response (in words)” value ([2]; 100 nM, substance alone) is reported as “fully efficacious in inhibiting the baclofen response; also recorded: inhibited the baclofen response; also recorded: identical response to free 17β-estradiol”.
`C[C@]12CC[C@@H]3c4ccc(O)cc4CC[C@H]3[C@@H]1CC[C@H]2O` [17α-estradiol] was tested, and the “effect on the baclofen response (in words)” value ([2]; 1 μM, substance alone) was “no effect; also recorded: inactive; also recorded: no effects were observed”.
In the case of `C[C@]12CC[C@@H]3c4ccc(O)cc4CC[C@H]3[C@@H]1CC[C@@H]2O` [17β-estradiol], the “R2/R1 (second over first baclofen response)” value [2] is reported as 58.6±3.4%, the “decrease in the response to a second application of baclofen (GABAB outward current)” value [2] is reported as 41% and the “effect on the baclofen response (in words)” value ([2]; 100 nM, substance alone) is reported as “no effect”.
For `O=C(O)CN(CC(=O)O)c1ccccc1OCCOc1ccccc1N(CC(=O)O)CC(=O)O` [BAPTA, 1,2-bis-(o-aminophenoxyethane)-N,N,N′,N′-tetraacetic acid], the “effect on the 17β-estradiol attenuation of the baclofen response (in words)” value (“effect on the 17β-estradiol attenuation” for short) ([2]; 10 mM in the internal solution replacing EGTA, with 17β-estradiol) was “still observed”.
With `CN(C)CCCn1cc(C2=C(c3c[nH]c4ccccc34)C(=O)NC2=O)c2ccccc21.Cl` [BIS, bisindolylmaleimide I hydrochloride] the “effect on the 17β-estradiol attenuation” value [2] was “nearly eliminated the effects of 17β-estradiol”.
`Cl.Cl.O=S(=O)(NCCNC/C=C/c1ccc(Br)cc1)c1cccc2cnccc12` [Compound H89] was tested, and the “effect on the 17β-estradiol attenuation” value [2, 5] was “blocked”.
For `N#CC(=C(/N)Sc1ccccc1N)/C(C#N)=C(/N)Sc1ccccc1N` [Compound U0126], the “effect on the 17β-estradiol attenuation” value ([2]; 5 μM, with 17β-estradiol) was “did not affect 17β-estradiol inhibition of baclofen responses”.
`COc1ccc2c(c1)CC[C@@H]1[C@@H]2CC[C@]2(C)[C@@H](NCCCCCCN3C(=O)C=CC3=O)CC[C@@H]12` [Compound U73122] was tested, and the “effect on the 17β-estradiol attenuation” value [2, 5] was “blocked”.
With `COc1ccc2c(c1)CC[C@@H]1[C@@H]2CC[C@]2(C)[C@@H](NCCCCCCN3C(=O)CCC3=O)CC[C@@H]12` [Compound U73343] the “effect on the 17β-estradiol attenuation” value [2, 5] was “no effect”.
In the case of `CC/C(=C(\c1ccccc1)c1ccc(/C=C/C(=O)O)cc1)c1ccccc1` [GW-5638], the “effect on the baclofen response (in words)” value ([2]; 1 μM, substance alone) is reported as “significantly more efficacious than 17β-estradiol; also recorded: behave like 17β-estradiol”.
For `Cn1c2ccccc2c2c3c(c4c5ccccc5n(CCC#N)c4c21)CNC3=O` [Gö6976], the “effect on the 17β-estradiol attenuation” value ([2]; concentration not given, with 17β-estradiol) was “without effect”.
`C[C@]12CC[C@@H]3c4ccc(O)cc4C[C@@H](CCCCCCCCC[S+]([O-])CCCC(F)(F)C(F)(F)F)[C@H]3[C@@H]1CC[C@@H]2O` (some centres unmarked) [ICI 182,780] was tested, and the “effect on the baclofen response (in words)” value ([2]; 1 μM, substance alone) was “no effect”, the “effect on the 17β-estradiol attenuation” value ([2]; 1 μM, together with 17β-estradiol (100 nM)) was “blocked” and the “effect on the 17β-estradiol attenuation” value ([2]; 1 μM, together with 17β-estradiol (100 nM), listed as ICI-182,780) was “antagonizes the 17β-estradiol response”.
`COc1cccc(-c2cc(=O)c3ccccc3o2)c1N` [PD98059] was tested, and the “effect on the 17β-estradiol attenuation” value [2, 5] was “did not affect 17β-estradiol inhibition of baclofen responses” and the “R2/R1 (second over first baclofen response), substance + 17β-estradiol” value ([2]; substance 10 μM in the pipette together with 17β-estradiol) was 66.1±11.8%.
In the case of `O=C(c1ccc(OCCN2CCCCC2)cc1)c1c(-c2ccc(O)cc2)sc2cc(O)ccc12` [Raloxifene, raloxifene], the “effect on the baclofen response (in words)” value [2] is reported as “completely mimicked the actions of 17β-estradiol; also recorded: behave like 17β-estradiol”.
With `Nc1ncnc2c1ncn2[C@@H]1O[C@@H]2COP(O)(=S)O[C@H]2[C@H]1O` (some centres unmarked) [Rp-cAMP] the “effect on the 17β-estradiol attenuation” value ([2]; 200 μM, intracellular dialysis, with 17β-estradiol) was “abolished”.
For `CC/C(=C(\c1ccccc1)c1ccc(OCCN(C)C)cc1)c1ccccc1` [Tamoxifen, tamoxifen], the “effect on the 17β-estradiol attenuation” value [2] was “did not attenuate the effects of 17β-estradiol” and the “effect on the baclofen response (in words)” value [2] was “inactive”.
In the case of `C[C@]12CC[C@@H]3c4ccc(OC(=O)c5ccccc5)cc4CC[C@H]3[C@@H]1CC[C@@H]2O` [estradiol benzoate], the uterine size [4] is reported as “noticeable increase in uterine size”.
In the case of `CC(=O)c1c(O)c(C)c(O)c(Cc2c(O)c3c(c(C(=O)/C=C/c4ccccc4)c2O)OC(C)(C)C=C3)c1O` [rottlerin], the “effect on the 17β-estradiol attenuation” value [2] is reported as “completely blocked”.
With Ac-LGLNLKEYNLV-OH [Gq peptide] the “effect on the 17β-estradiol attenuation” value [2] was “significantly blocked”.
